In ChEMBL document CHEMBL1154899, “Synthesis and biological evaluation of caffeic acid 3,4-dihydroxyphenethyl ester” (J Nat Prod, 2010):

Tests used:
Assay type in all cases: functional
HOP-92 [1] = assay: Antiproliferative activity against human HOP92 cells assessed as cell growth at 50 uM by SRB assay; settings: read-out: Activity
NCI-H226 [2] = assay: Antiproliferative activity against human NCI-H226 cells assessed as cell growth at 50 uM by SRB assay; settings: read-out: Activity
HCT-116 [3] = assay: Antiproliferative activity against human HCT116 cells assessed as cell growth at 50 uM by SRB assay; settings: read-out: Activity
HT-29 [4] = assay: Antiproliferative activity against human HT-29 cells assessed as cell growth at 50 uM by SRB assay; settings: read-out: Activity
KM12 = assay: Antiproliferative activity against human KM12 cells assessed as cell growth at 50 uM by SRB assay; settings: read-out: Activity
HCT-15 [5] = assay: Antiproliferative activity against human HCT15 cells assessed as cell growth at 5 uM by SRB assay; settings: read-out: Activity
SN12C = assay: Antiproliferative activity against human SN12C cells assessed as cell growth at 5 uM by SRB assay; settings: read-out: Activity
RXF 393 = assay: Antiproliferative activity against human RXF393 cells assessed as cell growth at 50 uM by SRB assay; settings: read-out: Activity
MDA-MB-231 = assay: Antiproliferative activity against human MDA-MB-231 cells assessed as cell growth at 50 uM by SRB assay; settings: read-out: Activity
ACHN = assay: Antiproliferative activity against human ACHN cells assessed as cell growth at 500 uM by SRB assay; settings: read-out: Activity
HL-60(TB) [6] = assay: Antiproliferative activity against human HL-60(TB) cells assessed as cell growth at 5 mM by SRB assay; settings: read-out: Activity
MOLT-4 [7] = assay: Antiproliferative activity against human MOLT4 cells assessed as cell growth at 5 mM by SRB assay; settings: read-out: Activity
MDA-MB-435 = assay: Antiproliferative activity against human MDA-MB-435 cells assessed as cell growth at 5 uM by SRB assay; settings: read-out: Activity
CCRF-CEM [8] = assay: Antiproliferative activity against human CCRF-CEM cells assessed as cell growth at 500 uM by SRB assay; settings: read-out: Activity
LOX IMVI = assay: Antiproliferative activity against human LOXIMVI cells assessed as cell growth at 500 uM by SRB assay; settings: read-out: Activity
HL-60(TB) [9] = assay: Antiproliferative activity against human HL-60(TB) cells by SRB assay
K562 = assay: Antiproliferative activity against human K562 cells by SRB assay
HOP-62 = assay: Antiproliferative activity against human HOP62 cells by SRB assay
COLO 205 = assay: Antiproliferative activity against human COLO205 cells by SRB assay
SF-295 = assay: Antiproliferative activity against human SF295 cells by SRB assay
SNB-75 = assay: Antiproliferative activity against human SNB75 cells by SRB assay
U-251 = assay: Antiproliferative activity against human U251 cells by SRB assay
SK-MEL-5 = assay: Antiproliferative activity against human SK-MEL-5 cells by SRB assay
OVCAR-3 = assay: Antiproliferative activity against human OVCAR-3 cells by SRB assay
OVCAR-8 = assay: Antiproliferative activity against human OVCAR8 cells by SRB assay
UACC-62 = assay: Antiproliferative activity against human UACC62 cells assessed as cell growth at 0.5 uM by SRB assay; settings: read-out: Activity
UO-31 = assay: Antiproliferative activity against human UO31 cells assessed as cell growth at 0.5 uM by SRB assay; settings: read-out: Activity
MOLT-4 [10] = assay: Antiproliferative activity against human MOLT4 cells assessed as cell growth at 0.5 uM by SRB assay; settings: read-out: Activity
HOP-92 [11] = assay: Antiproliferative activity against human HOP92 cells assessed as cell growth at 0.5 uM by SRB assay; settings: read-out: Activity
NCI-H226 [12] = assay: Antiproliferative activity against human NCI-H226 cells assessed as cell growth at 0.5 uM by SRB assay; settings: read-out: Activity
NCI-H460 = assay: Antiproliferative activity against human NCI-H460 cells assessed as cell growth at 0.5 uM by SRB assay; settings: read-out: Activity
HCC 2998 = assay: Antiproliferative activity against human HCC2998 cells assessed as cell growth at 0.5 uM by SRB assay; settings: read-out: Activity
HCT-116 [13] = assay: Antiproliferative activity against human HCT116 cells assessed as cell growth at 0.5 uM by SRB assay; settings: read-out: Activity
HCT-15 [14] = assay: Antiproliferative activity against human HCT15 cells assessed as cell growth at 0.5 uM by SRB assay; settings: read-out: Activity
HT-29 [15] = assay: Antiproliferative activity against human HT-29 cells assessed as cell growth at 0.5 uM by SRB assay; settings: read-out: Activity
Malme-3M = assay: Antiproliferative activity against human MALME-3M cells assessed as cell growth at 0.5 uM by SRB assay; settings: read-out: Activity
CCRF-CEM [16] = assay: Antiproliferative activity against human CCRF-CEM cells assessed as cell growth at 5 uM by SRB assay; settings: read-out: Activity
[17] = Antiproliferative activity against human […] cells assessed as cell growth at 5 uM by SRB assay; settings: read-out: Activity
NCI-H23 = assay: Antiproliferative activity against human NCI-H23 cells assessed as cell growth at 5 uM by SRB assay; settings: read-out: Activity
[18] = read-out: LC50 (the source's name)
[19] = read-out: pLC50 (the source's name) (converted)

O=C(/C=C/c1ccc(O)c(O)c1)OCCc1ccc(O)c(O)c1
growth at 50 µM (HOP-92 [1]): 55% | growth at 50 µM (NCI-H226 [2]): 90% | growth at 50 µM (HCT-116 [3]): 92% | growth at 50 µM (HT-29 [4]): 98% | growth at 50 µM (KM12): 81% | growth at 5 µM (HCT-15 [5]): 88% | growth at 5 µM (SN12C): 80% | growth at 50 µM (RXF 393): 135% | growth at 50 µM (MDA-MB-231): 97% | growth at 500 µM (ACHN): 38% | growth at 5000 µM (HL-60(TB) [6]): -30% | growth at 5000 µM (MOLT-4 [7]): 4% | growth at 5 µM (MDA-MB-435): 92% | growth at 500 µM (CCRF-CEM [8]): 1% | growth at 500 µM (LOX IMVI): 57% | GI50 (HL-60(TB) [9]; read-out: GI50): 2.54 µM | CC50 (HL-60(TB) [9]; [18]): > 50 µM | TGI (HL-60(TB) [9]; read-out: TGI): 17.7 µM | GI50 (HL-60(TB) [9]; read-out: pGI50 (converted)): 2.63 µM | CC50 (HL-60(TB) [9]; [19]): > 50.1 µM | TGI (HL-60(TB) [9]; read-out: pTGI (converted)): 17.8 µM | GI50 (K562; read-out: GI50): 1.56 µM | CC50 (K562; [18]): > 50 µM | TGI (K562; read-out: TGI): 19.9 µM | GI50 (K562; read-out: pGI50 (converted)): 1.55 µM | CC50 (K562; [19]): > 50.1 µM | TGI (K562; read-out: pTGI (converted)): 20 µM | GI50 (HOP-62; read-out: GI50): 29.1 µM | CC50 (HOP-62; [18]): > 50 µM | TGI (HOP-62; read-out: TGI): > 50 µM | GI50 (HOP-62; read-out: pGI50 (converted)): 28.8 µM | CC50 (HOP-62; [19]): > 50.1 µM | TGI (HOP-62; read-out: pTGI): > 50.1 µM | GI50 (COLO 205; read-out: GI50): 18.8 µM | CC50 (COLO 205; [18]): > 50 µM | TGI (COLO 205; read-out: TGI): > 50 µM | GI50 (COLO 205; read-out: pGI50 (converted)): 18.6 µM | CC50 (COLO 205; [19]): > 50.1 µM | TGI (COLO 205; read-out: pTGI): > 50.1 µM | GI50 (SF-295; read-out: GI50): 16.1 µM | CC50 (SF-295; [18]): > 50 µM | TGI (SF-295; read-out: TGI): > 50 µM | GI50 (SF-295; read-out: pGI50 (converted)): 16.2 µM | CC50 (SF-295; [19]): > 50.1 µM | TGI (SF-295; read-out: pTGI): > 50.1 µM | GI50 (SNB-75; read-out: GI50): 9.5 µM | CC50 (SNB-75; [18]): > 50 µM | TGI (SNB-75; read-out: TGI): > 50 µM | GI50 (SNB-75; read-out: pGI50 (converted)): 9.55 µM | CC50 (SNB-75; [19]): > 50.1 µM | TGI (SNB-75; read-out: pTGI): > 50.1 µM | GI50 (U-251; read-out: GI50): 8.86 µM | CC50 (U-251; [18]): > 50 µM | TGI (U-251; read-out: TGI): > 50 µM | GI50 (U-251; read-out: pGI50 (converted)): 8.71 µM | CC50 (U-251; [19]): > 50.1 µM | TGI (U-251; read-out: pTGI): > 50.1 µM | GI50 (SK-MEL-5; read-out: GI50): 8.12 µM | CC50 (SK-MEL-5; [18]): > 50 µM | TGI (SK-MEL-5; read-out: TGI): 47.7 µM | GI50 (SK-MEL-5; read-out: pGI50 (converted)): 8.13 µM | CC50 (SK-MEL-5; [19]): > 50.1 µM | TGI (SK-MEL-5; read-out: pTGI (converted)): 47.9 µM | GI50 (OVCAR-3; read-out: GI50): 5.17 µM | CC50 (OVCAR-3; [18]): > 50 µM | TGI (OVCAR-3; read-out: TGI): > 50 µM | GI50 (OVCAR-3; read-out: pGI50 (converted)): 5.13 µM | CC50 (OVCAR-3; [19]): > 50.1 µM | TGI (OVCAR-3; read-out: pTGI): > 50.1 µM | GI50 (OVCAR-8; read-out: GI50): 9.32 µM | CC50 (OVCAR-8; [18]): > 50 µM | TGI (OVCAR-8; read-out: TGI): > 50 µM | GI50 (OVCAR-8; read-out: pGI50 (converted)): 9.33 µM | CC50 (OVCAR-8; [19]): > 50.1 µM | TGI (OVCAR-8; read-out: pTGI): > 50.1 µM | growth at 0.5 µM (UACC-62): 91% | growth at 0.5 µM (UO-31): 98% | growth at 0.5 µM (MOLT-4 [10]): 101% | growth at 0.5 µM (HOP-92 [11]): 70% | growth at 0.5 µM (NCI-H226 [12]): 97% | growth at 0.5 µM (NCI-H460): 95% | growth at 0.5 µM (HCC 2998): 93% | growth at 0.5 µM (HCT-116 [13]): 100% | growth at 0.5 µM (HCT-15 [14]): 80% | growth at 0.5 µM (HT-29 [15]): 104% | growth at 0.5 µM (Malme-3M): 91% | growth at 5 µM (CCRF-CEM [16]): 99% | growth at 5 µM [17]: 70% | growth at 5 µM (NCI-H23): 95%
